A short description of data set [1]: Maximum degradation in the infusion estimated for selected infusion schedules. Format: physicochemical. The settings on record: 0.1-1 mg/mL; for Average degradation rate: estimate assuming linearity. As to the method:
Table 3 summarizes the maximum degradation estimated using a series of infusion schedules (S1 through S7 as denoted in the table) selected to establish degradation limits and acceptable shelf life of the diluted solution. The average degradation rate used for calculations is based on the assumption that degradation in solutions is linear and the slope between the initial and the terminal time point is considered to be worst case. If the solution is prepared appropriately and used immediately, degradation would be minimal. It is recommended that a diluted infusion should not be stored longer than seven hours in a refrigerator for a three hour infusion or longer than 10 hours in a refrigerator for a two hour infusion in order to stay within the 10% maximum limit allowed for degradation.

The subject of data set [2] is intermediate and high-risk MDS and CMML. Kind of data set: Randomized low dose decitabine schedules in patients with hematological disorders. Format: in vivo, human. Here is the method: Patients with intermediate and high-risk MDS and CMML were randomized to one of three decitabine schedules: (1) 20 mg/m^2 infused intravenously over 1 hour, once daily, for five days; (2) 10 mg/m^2, infused intravenously over one hour, once daily, for ten days; (3) 10 mg/m^2, injected subcutaneously twice a day, for five days.
Decitabine was supplied as a lyophilized powder, 50 mg in 20 mL glass vials, for reconstitution with 10 mL sterile water (Supergen, Inc., Dublin Calif., through Pharmachemie B.V., Haarlem, The Netherlands). The reconstituted stock solution contained 5 mg/mL decitabine, 6.8 mg KH2PO4, and approximately 1.1 mg/mL NaOH. The reconstituted solution was further diluted for intravenous infusion or subcutaneous injection with pharmaceutically acceptable cold infusion fluids (physiological saline, glucose-saline, lactated Ringer's solution). The time delay between preparation of the infusion/injection solution was kept as short as practicable, with refrigerated storage prior to administration not to exceed 4-5 hours.
Patients received one course of treatment (as defined above) every 28 days. […] Patients were allowed 40,000 units of erythropoietin weekly for anemia, or GCSF if needed.
The age of 92 treated patients ranged from 31-90 years (median: 65, with 66% of patients being older than 60); according to IPSS prognostic scores, 25% of patients were classified as intermediate-1, 38% as intermediate-2, 19% as high risk, and 17% as having chronic myelomonocytic leukemia (CMML). […] Twenty-seven patients had had prior erythropoietin; 17 had had prior GCSF, and 22 had had other prior therapies.

[3] abbreviates: all three schedules, 92 treated patients.

Data on 1 molecule can be found in patent publication US20070117776A1, “Low Dose Therapy Of DNA Methylation Inhibitors” (priority 2005, published 2007).

Regarding `Nc1ncn([C@H]2C[C@H](O)[C@@H](CO)O2)c(=O)n1` [Decitabine, 4-amino-1-(2-deoxy-β-D-erythro-pentofuranosyl)-1,3,5-triazin-2(1H)-one], the Average degradation rate in data set [1] (@ 4° C.) was 0.40 %/hr; in data set [1] (@ Room Temperature), 2.44 %/hr. Moreover, the Maximum degradation in data set [1] (S1 (6 hr stored @4° C. + 3 hr @ RT during infusion)) was 9.72 % peak area; in data set [1] (S2 (7 hr stored @4° C. + 3 hr @ RT during infusion)), 10.12 % peak area; in data set [1] (S3 (7 hr stored @4° C. + 2 hr @ RT during infusion)), 7.68 % peak area; in data set [1] (S4 (8 hr stored @4° C. + 3 hr @ RT during infusion)), 10.52 % peak area; in data set [1] (S5 (8 hr stored @4° C. + 2 hr @ RT during infusion)), 8.08 % peak area; in data set [1] (S6 (9 hr stored @4° C. + 2 hr @ RT during infusion)) it was 8.48 % peak area. For the same molecule, the Maximum degradation in data set [1] (S7 (10 hr stored @4° C. + 2 hr @ RT during infusion)) is listed as 8.88 % peak area. Also, the comparison of schedules result in data set [2] (5-day IV arm versus the other arms, after 55 patients were randomized) is reported as “statistically superior”. Also, the “complete remission (patients with CR/patients treated)” value was 24/57 in data set [2] (5-day IV courses: 20 mg/m^2 infused intravenously over 1 hour, once daily, for five days); 4/14 in data set [2] (5-day subcutaneous courses: 10 mg/m^2 injected subcutaneously twice a day, for five days); 4/17 in data set [2] (10-day IV courses: 10 mg/m^2 infused intravenously over one hour, once daily, for ten days). Also, in data set [2] (10-day IV cohort (10 mg/m^2 over one hour, once daily, ten days) compared with the other schedules), the myelosuppression result is “more myelosuppression”. In addition, the “CB combined with bone marrow CR” value in data set [2] (setting [3]) is given as “Thirteen”. In addition, the “Partial remission (PR)” value in data set [2] (setting [3]) was “seven”. The “clinical benefit (CB)” value in data set [2] (setting [3]) is reported as “Sixteen”. For the same molecule, in data set [2] (setting [3]), the “complete remission (CR)” value is on record as 32 patients. For the same molecule, in data set [2] (one course every 28 days), the “number of treatment courses in patients who achieved CR (median)” value came to 3. Also, in data set [2] (one course every 28 days), the “number of treatment courses in patients who achieved CR (range)” value is “one to six”. Moreover, in data set [2] (patients who received at least one course of treatment), the “patients who showed a response (overall)” value is 76%.
